For assay [1], the target named is T1, soluble epoxide hydrolase (sEH) (Homo sapiens, UniProt P34913).
T1 construct: purchased Cayman Chemical Company 100116
T1 sequence (P34913 1-555): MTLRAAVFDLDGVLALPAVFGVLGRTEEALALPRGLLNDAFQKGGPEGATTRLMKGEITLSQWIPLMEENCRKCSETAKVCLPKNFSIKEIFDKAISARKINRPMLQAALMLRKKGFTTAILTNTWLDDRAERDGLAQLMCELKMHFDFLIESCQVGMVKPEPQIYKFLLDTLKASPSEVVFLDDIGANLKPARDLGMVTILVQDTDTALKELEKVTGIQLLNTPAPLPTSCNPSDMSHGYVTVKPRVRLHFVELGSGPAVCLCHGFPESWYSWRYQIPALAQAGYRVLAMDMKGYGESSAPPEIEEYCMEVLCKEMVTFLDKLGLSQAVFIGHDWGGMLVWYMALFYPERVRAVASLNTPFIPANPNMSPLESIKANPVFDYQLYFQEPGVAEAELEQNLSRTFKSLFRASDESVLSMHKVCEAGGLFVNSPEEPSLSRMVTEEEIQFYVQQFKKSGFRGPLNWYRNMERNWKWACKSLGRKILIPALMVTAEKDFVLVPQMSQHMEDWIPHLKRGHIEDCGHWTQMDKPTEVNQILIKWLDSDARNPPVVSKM
The assay is described as follows: sEH inhibitory activity, fluorescence-based assay with PHOME as substrate. In kind it is biochemical. The conditions noted are these: recombinant sEH; for IC50: 37 °C, mean ± SD (n = 3); for sEH inhibitory activity (in words): compounds tested 0.1–100.0 μM. On the procedure: The sEH inhibitory activities of compounds 1−10 were evaluated using a fluorescence-based assay with 3-phenyl-cyano(6-methoxy-2-naphthalenyl)methyl ester-2-oxiraneacetic acid (PHOME) as the substrate.
The epoxide hydrolase (sEH) enzyme is a recombinant enzyme with a concentration of 0.8 mg/mL, purchased from the Cayman Chemical Company in the United States (catalogue number: 100116, batch number: 069065) and stored at −80 °C to ensure its activity.
The enzymatic reactions were performed in a 96-well plate at 37 °C, where sEH hydrolyzed the fluorogenic substrate PHOME (MedChemExpress LLC., Princeton, NJ, USA) in the presence of each compound. The fluorescence signals were measured at an excitation wavelength of 330 nm and an emission wavelength of 465 nm. Wells containing the substrate alone (without the test compounds) served as negative controls. […] The inhibitory activity of each compound was evaluated based on the reduction in the formation of 6-methoxy-2-naphthaldehyde, a fluorescent product generated by PHOME hydrolysis.

In assay [2] the target is T1, soluble epoxide hydrolase (sEH). The assay is described as follows: sEH kinetic study (Lineweaver–Burk plots, varying inhibitor and PHOME concentrations). The conditions noted are these: compound 1 to 5 μM, PHOME 1 to 20 μM. In kind it is biochemical. The method, then:
Furthermore, the inhibition mechanisms of phenolic amides 6–8 and 10 were elucidated by kinetic analysis using various concentrations of compounds and the substrate, PHOME.
The inhibitory behaviour of compounds 6–8 and 10 against sEH was examined by analyzing kinetic changes at varying inhibitor concentrations. Each compound was tested at concentrations ranging from 1 to 5 μM, whereas the substrate PHOME was applied at concentrations ranging from 1 to 20 μM. The experimental data were fitted to the Michaelis–Menten equation to evaluate the kinetic parameters. The mode of inhibition was further determined using Lineweaver–Burk plots. Data were analyzed and plotted using GraphPad Prism 7 (GraphPad Software Inc., San Diego, CA, USA).

Data on 10 compounds can be found in article PMC12196358, “Indole Alkaloids and Phenolic Amides from the Rhizomes of Cimicifuga heracleifolia and Their In Vitro Soluble Epoxide Hydrolase (sEH) Inhibitory Activity” (Plants, 2025).

Entries after “also recorded” stand apart in the source; their conditions may differ.

As to `COc1ccc2c(C(=O)C=C(C)C)c[nH]c2c1` [Compound 1, 6-methoxy-3-(3-methyl-1-oxo-2-butenyl) 1H indole], in assay [1], the IC50 (in general, the concentration that gives 50% inhibition) was greater than 100 µM and the “sEH inhibitory activity (in words)” value is listed as “lack of inhibitory activity”.

With `CC(C)=CC(=O)c1c[nH]c2ccccc12` [Compound 2, 3-(3-methyl-1-oxo-2-butenyl) 1H indole], in assay [1], the IC50 is greater than 100 µM and the “sEH inhibitory activity (in words)” value was “lack of inhibitory activity”.

Take `CC(C)CC[C@]1(O)C(=O)N([C@@H]2O[C@H](CO)[C@@H](O)[C@H](O)[C@H]2O)c2ccccc21` [Compound 3, (3R)-1-(β-D-glucopyranosyl)-3-hydroxy-3-(3-methylbutyl)-2-oxindole]: in assay [1], the IC50 is greater than 100 µM.

For the compound `CC(=O)NCCc1ccc(O)c(OC2OC(CO)C(O)C(O)C2O)c1` [Compound 4, N-acetyldopamine-3-O-β-D-allopyranoside], in assay [1], the IC50 was greater than 100 µM and the “sEH inhibitory activity (in words)” value is on record as “did not show significant inhibitory activity”.

Take `CC(=O)NCCc1ccc(O)c(O[C@@H]2O[C@H](CO)[C@@H](O)[C@H](O)[C@H]2O)c1` [Compound 5, N-acetyldopamine-3-O-β-D-glucopyranoside]: in assay [1], the concentration for half-maximal inhibition (IC50) is greater than 100 µM and the “sEH inhibitory activity (in words)” value is reported as “did not show significant inhibitory activity”.

As to `COc1cc(/C=C/C(=O)NCCc2ccc(O)c(O)c2)ccc1O[C@@H]1O[C@H](CO)[C@H](O)[C@H](O)[C@H]1O` [Compound 6, cimicifugamide A], in assay [1], the IC50 came out at 8.74 ± 0.42 µM and the “sEH inhibitory activity (in words)” value is on record as “most potent sEH inhibitory activity”. The “mechanism (mode) of sEH inhibition” value in assay [2] is recorded as “non-competitive”.

Turning to `COc1cc(CCNC(=O)/C=C/c2ccc(O[C@@H]3O[C@H](CO)[C@H](O)[C@H](O)[C@H]3O)c(OC)c2)ccc1O` [Compound 7, cimicifugamide], in assay [1], the IC50 came to 15.63 ± 0.1 µM and the “sEH inhibitory activity (in words)” value was “moderate inhibitory activity”. Moreover, the “mechanism (mode) of sEH inhibition” value in assay [2] is on record as “mixed-type competitive”.

Take `COc1cc(/C=C/C(=O)NCCc2ccc(O)cc2)ccc1O[C@@H]1O[C@H](CO)[C@H](O)[C@H](O)[C@H]1O` [Compound 8, demethoxycimicifugamide]: in assay [1], the IC50 is 20.6 ± 0.89 µM and the “sEH inhibitory activity (in words)” value is recorded as “moderate inhibitory activity”. Besides, in assay [2], the “mechanism (mode) of sEH inhibition” value was “mixed-type competitive”.

Turning to `COc1cc(C=CC(=O)NCCc2ccc(OC3OC(CO)C(O)C(O)C3O)c(OC)c2)ccc1O` (centres unmarked) [Compound 9, cimicifugamide C], in assay [1], the IC50 is greater than 100 µM and the “sEH inhibitory activity (in words)” value is reported as “did not show significant inhibitory activity; also recorded: no sEH inhibitory activity”.

Take `COc1cc(/C=C/C(=O)NCCc2ccc(O)cc2)ccc1O` [Compound 10, N-trans-feruloyl tyramine]: in assay [1], the IC50 stood at 17.2 ± 0.31 µM and the “sEH inhibitory activity (in words)” value is “moderate inhibitory activity”. Also, the “mechanism (mode) of sEH inhibition” value in assay [2] is on record as “uncompetitive”.
